From US11292821B2, “Peptides and combination of peptides for use in immunotherapy against lung cancer, including NSCLC, SCLC and other cancers” (Immatics Biotechnologies GmbH, priority 2017, dated 2022)

System: HLA-A*24
Experiment: MHC binding assay (UV-ligand exchange, β2m ELISA)
Set-up: species or system human

Substance	Peptide exchange (peptide exchange yield, MHC class I binding score)
22 (TQPGDWTLF; listed as Homo sapiens) [compound 22]	“++++” (>75% = ++++)
39 (LIFMLANVF; listed as Homo sapiens) [compound 39]	“+” (>10% = +)
57 (YPSIIQEF; listed as Homo sapiens) [compound 57]	“++++” (>75% = ++++)
376 (KYVKDFHKF; listed as Homo sapiens) [compound 376]	“++++” (>75% = ++++)
47 (KYADYFLEV; listed as Homo sapiens) [compound 47]	“++++” (>75% = ++++)
5 (RYMKKDYLI; listed as Homo sapiens) [compound 5]	“++++” (>75% = ++++)
17 (YYADKKTFIVL; listed as Homo sapiens) [compound 17]	“+++” (>50 = +++)
40 (QYEPPSAPSTTF; listed as Homo sapiens) [compound 40]	“+++” (>50 = +++)
44 (AYLSAVGTF; listed as Homo sapiens) [compound 44]	“++++” (>75% = ++++)
78 (TWFPKTPMLF; listed as Homo sapiens) [compound 78]	“++++” (>75% = ++++)
7 (VQQWSVAVF; listed as Homo sapiens) [compound 7]	“+++” (>50 = +++)
32 (SLPDLTPTF; listed as Homo sapiens) [compound 32]	“++++” (>75% = ++++)
23 (KFIISDWRF; listed as Homo sapiens) [compound 23]	“++++” (>75% = ++++)
35 (KYLEESVWL; listed as Homo sapiens) [compound 35]	“++++” (>75% = ++++)
378 (KFLGPAEHLTF; listed as Homo sapiens) [compound 378]	“++++” (>75% = ++++)
18 (DYIGSVEKW; listed as Homo sapiens) [compound 18]	“++++” (>75% = ++++)
19 (ILKEDPFLF; listed as Homo sapiens) [compound 19]	“+” (>10% = +)
70 (PYTNYTFDF; listed as Homo sapiens) [compound 70]	“++++” (>75% = ++++)
53 (KYITNLEDL; listed as Homo sapiens) [compound 53]	“++++” (>75% = ++++)
29 (VYPLLSRLYW; listed as Homo sapiens) [compound 29]	“++++” (>75% = ++++)

Substance	Peptide exchange (peptide exchange yield, MHC class I binding score)
51 (KYALLLQEL; listed as Homo sapiens) [compound 51]	“++++” (>75% = ++++)
385 (MYINEVERL; listed as Homo sapiens) [compound 385]	“++++” (>75% = ++++)
38 (KYTNWKAFL; listed as Homo sapiens) [compound 38]	“++++” (>75% = ++++)
33 (KSSVIASLLF; listed as Homo sapiens) [compound 33]	“+++” (>50 = +++)
34 (MQPRMFFLF; listed as Homo sapiens) [compound 34]	“++++” (>75% = ++++)
37 (QWPWQASLQF; listed as Homo sapiens) [compound 37]	“++++” (>75% = ++++)
49 (LYISEVRNI; listed as Homo sapiens) [compound 49]	“++++” (>75% = ++++)
26 (KTPTNYYLF; listed as Homo sapiens) [compound 26]	“++++” (>75% = ++++)
42 (TLPNTIYRF; listed as Homo sapiens) [compound 42]	“++++” (>75% = ++++)
14 (SYSSCYSF; listed as Homo sapiens) [compound 14]	“+++” (>50 = +++)
67 (RYPGKFYRV; listed as Homo sapiens) [compound 67]	“++++” (>75% = ++++)
63 (VMPSDSFFF; listed as Homo sapiens) [compound 63]	“++++” (>75% = ++++)
24 (MYPDLSELLM; listed as Homo sapiens) [compound 24]	“++++” (>75% = ++++)
58 (QFAAPLRGIYF; listed as Homo sapiens) [compound 58]	“++++” (>75% = ++++)
71 (SYMVLAPVF; listed as Homo sapiens) [compound 71]	“++++” (>75% = ++++)
36 (KQMEDGHTLF; listed as Homo sapiens) [compound 36]	“++” (>20% = ++)
81 (LYPEGLRLL; listed as Homo sapiens) [compound 81]	“++++” (>75% = ++++)
3 (YLEKFYGL; listed as Homo sapiens) [compound 3]	“++” (>20% = ++)
55 (RWMDQRLVF; listed as Homo sapiens) [compound 55]	“++++” (>75% = ++++)
82 (RFLPSPVVI; listed as Homo sapiens) [compound 82]	“++++” (>75% = ++++)

Substance	Peptide exchange (peptide exchange yield, MHC class I binding score)
77 (AYTLLGHEFV; listed as Homo sapiens) [compound 77]	“+” (>10% = +)
80 (YYSPLRDLL; listed as Homo sapiens) [compound 80]	“++++” (>75% = ++++)
25 (SYNGYVFYL; listed as Homo sapiens) [compound 25]	“++++” (>75% = ++++)
68 (IYQQIIQTY; listed as Homo sapiens) [compound 68]	“++++” (>75% = ++++)
52 (KYMKIFHKF; listed as Homo sapiens) [compound 52]	“++++” (>75% = ++++)
69 (IMPEKFEFW; listed as Homo sapiens) [compound 69]	“++++” (>75% = ++++)
48 (VFIDHPVHLKF; listed as Homo sapiens) [compound 48]	“++++” (>75% = ++++)
74 (VYDQYFITL; listed as Homo sapiens) [compound 74]	“++++” (>75% = ++++)
28 (YYSIISHTL; listed as Homo sapiens) [compound 28]	“++++” (>75% = ++++)
43 (IQMDEPMAF; listed as Homo sapiens) [compound 43]	“+” (>10% = +)
56 (VYMIEPLEL; listed as Homo sapiens) [compound 56]	“++++” (>75% = ++++)
46 (AFPVTSIFHTF; listed as Homo sapiens) [compound 46]	“++++” (>75% = ++++)
21 (SYEVRSTF; listed as Homo sapiens) [compound 21]	“+++” (>50 = +++)
381 (TYSKKHFRI; listed as Homo sapiens) [compound 381]	“++++” (>75% = ++++)
382 (IYHSHHPTL; listed as Homo sapiens) [compound 382]	“+++” (>50 = +++)
45 (KYFVPPQLF; listed as Homo sapiens) [compound 45]	“++++” (>75% = ++++)
64 (NYAIFDEGHML; listed as Homo sapiens) [compound 64]	“++++” (>75% = ++++)
54 (LLIKLLQTF; listed as Homo sapiens) [compound 54]	“+++” (>50 = +++)
